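Five compound concentrations were applied to cells in 96-well plates for 48 hours; endpoints were derived by simple linear interpolation of the resulting dose-response curve. Definition used: TGI = concentration required for complete inhibition of growth.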
Legend:
Assay in all cases: NCI tumour cell line growth inhibition, 48 h
PC-3 prostate = tested on: PC-3 prostate
MDA-MB-435 = tested on: MDA-MB-435
MDA-MB-231 breast = tested on: MDA-MB-231 breast
K-562 leukemia = tested on: K-562 leukemia
MCF7 breast = tested on: MCF7 breast
CAKI-1 renal = tested on: CAKI-1 renal
HCT-15 colon = tested on: HCT-15 colon
HL-60(TB) leukemia = tested on: HL-60(TB) leukemia
KM12 colon = tested on: KM12 colon
OVCAR-4 ovarian = tested on: OVCAR-4 ovarian

SMILES	TGI (PC-3 prostate) [µM]	TGI (MDA-MB-435) [µM]	TGI (MDA-MB-231 breast) [µM]	TGI (K-562 leukemia) [µM]	TGI (MCF7 breast) [µM]	TGI (CAKI-1 renal) [µM]	TGI (HCT-15 colon) [µM]	TGI (HL-60(TB) leukemia) [µM]	TGI (KM12 colon) [µM]	TGI (OVCAR-4 ovarian) [µM]
Nc1nc(NCc2ccccc2)cc(NCc2ccccc2)n1	16.8	18.9	22.4	> 100	6.36	9.74	18.3	> 100	27.9	28.3
CCOP(=O)(OCC)/C(F)=C/c1ccc(F)cc1	> 100	> 100	> 100	> 100	> 100	> 100	> 100	> 100	> 100	> 100
CCOC(=O)n1c(=O)nc2c3c(ncn21)Oc1c(c(-c2ccccc2)nn1-c1ccccc1)C3c1ccc(Cl)cc1 (stereo not given)	3.1	3.03	2.7	2.41	2.9	2.96	2.4	2.78	2.89	2.47
COC(=O)c1c(O)ccc2c1c1c(n2CCc2ccccc2)C(=O)c2ccccc2C1	50.6	67	57	> 100	42.5	45.6	63.8	65.3	> 100	41.4
NC(C(=O)O)C(O)c1cnc[nH]1 (stereo not given)	> 100	> 100	> 100	> 100	> 100	> 100	> 100	> 100	> 100	> 100
N#Cc1nc(CCC(C(=O)O)N2C(=O)c3ccccc3C2=O)oc1N (stereo not given)	> 100	> 100	> 100	> 100	> 100	> 100	> 100	> 100	> 100	> 100
O=c1[nH]nc(Nc2ccc(Cl)cc2)c2nnn(-c3ccc([N+](=O)[O-])cc3)c12	68.8	> 100	> 100	29.9	47.4	> 100	> 100	> 100	> 100	> 100
O=C1C(CN2CCCC2)CCC1CN1CCCC1 (stereo not given)	> 55.9	32.9	26.7	> 33.4	39.3	24.6	31.8	> 100	> 100	48.7
C(#C[C@@]12CCC[C@@H]1NCO2)c1ccc2c(c1)OCO2	> 100	> 100	> 100	60.2	> 100	> 100	> 100	68.2	> 100	> 100
COC1=C(OC)C(=O)c2cc(C)c(=O)c(C)cc2C1=O	49.6	3.49	20.7	> 24	36.4	31.7	45.7	8.9	36.6	7.64
CC(=O)OCCn1c(Cc2ccc(Cl)cc2)nn(C(C)=O)c1=O	> 100	> 100	> 100	> 100	> 100	> 100	> 100	> 100	> 100	> 100
COc1cc(N(CCC#N)CCC#N)ccc1/C(N=Nc1cccc([N+](=O)[O-])c1)=N\NC(=O)c1ccc(C)cc1	> 100	> 100	> 100	> 100	> 100	> 100	> 100	49.1	> 100	> 100
COc1ccccc1Nc1nc(N)nc(N)c1N	> 100	82.6	99.6	> 100	> 100	> 100	> 100	85	> 100	> 100
CN(C)CCC(C#N)(c1ccccc1)c1ccccc1	> 100	> 100	> 100	22.6	> 100	> 100	> 100	65.3	> 100	> 100
CC(=O)OC1=C(c2ccccc2)S(=O)(=O)c2ccccc21	> 100	> 100	> 100	> 100	> 100	> 100	> 100	> 100	> 100	> 100
Cn1c2ccccc2n2c3ccccc3c3nnc(N)c-3c12	> 100	> 100	> 100	> 100	> 74.7	> 100	> 100	> 100	> 100	> 100
C[C@H]1CC(=O)C[C@@H]2CC[C@@H]3[C@H](CC[C@]4(C)C(OC(=O)c5cccc6c(=O)c7ccccc7[nH]c56)CC[C@@H]34)[C@]21C (stereo not given in full)	> 100	> 100	> 100	> 100	> 100	86	> 100	36.5	> 100	> 100

— PubChem BioAssay (NCI)
